Measured values taken from patent publication US9776997B2, “3-aryl-substituted imidazo[1,2-A]pyridines and their use” (Bayer Pharma Aktiengesellschaft, priority 2013, dated 2017).

Molecular target: T1, recombinant guanylate cyclase reporter cell line (Rattus norvegicus, UniProt P19686+P20595)
T1 construct: expressed in transfected cells; host or cells: recombinant reporter cell line
T1 sequence (P19686 1-690): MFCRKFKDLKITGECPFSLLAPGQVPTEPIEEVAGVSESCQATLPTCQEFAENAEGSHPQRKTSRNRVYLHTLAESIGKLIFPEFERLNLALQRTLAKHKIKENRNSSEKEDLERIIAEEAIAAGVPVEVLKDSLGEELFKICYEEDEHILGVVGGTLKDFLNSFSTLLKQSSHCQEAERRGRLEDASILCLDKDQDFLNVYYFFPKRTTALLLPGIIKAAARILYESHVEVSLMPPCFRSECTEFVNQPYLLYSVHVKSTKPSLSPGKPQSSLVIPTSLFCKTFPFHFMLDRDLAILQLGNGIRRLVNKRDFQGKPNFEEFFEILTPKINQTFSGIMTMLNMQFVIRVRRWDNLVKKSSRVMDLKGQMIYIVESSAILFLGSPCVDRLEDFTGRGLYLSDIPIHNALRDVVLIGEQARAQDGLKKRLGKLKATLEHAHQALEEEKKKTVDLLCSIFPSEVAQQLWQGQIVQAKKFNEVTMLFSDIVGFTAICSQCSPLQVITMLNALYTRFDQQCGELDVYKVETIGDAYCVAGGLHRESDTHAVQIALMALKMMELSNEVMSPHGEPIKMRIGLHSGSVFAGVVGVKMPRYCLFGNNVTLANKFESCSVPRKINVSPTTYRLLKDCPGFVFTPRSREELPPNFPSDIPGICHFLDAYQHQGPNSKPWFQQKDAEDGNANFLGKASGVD
T1 sequence (P20595 1-619): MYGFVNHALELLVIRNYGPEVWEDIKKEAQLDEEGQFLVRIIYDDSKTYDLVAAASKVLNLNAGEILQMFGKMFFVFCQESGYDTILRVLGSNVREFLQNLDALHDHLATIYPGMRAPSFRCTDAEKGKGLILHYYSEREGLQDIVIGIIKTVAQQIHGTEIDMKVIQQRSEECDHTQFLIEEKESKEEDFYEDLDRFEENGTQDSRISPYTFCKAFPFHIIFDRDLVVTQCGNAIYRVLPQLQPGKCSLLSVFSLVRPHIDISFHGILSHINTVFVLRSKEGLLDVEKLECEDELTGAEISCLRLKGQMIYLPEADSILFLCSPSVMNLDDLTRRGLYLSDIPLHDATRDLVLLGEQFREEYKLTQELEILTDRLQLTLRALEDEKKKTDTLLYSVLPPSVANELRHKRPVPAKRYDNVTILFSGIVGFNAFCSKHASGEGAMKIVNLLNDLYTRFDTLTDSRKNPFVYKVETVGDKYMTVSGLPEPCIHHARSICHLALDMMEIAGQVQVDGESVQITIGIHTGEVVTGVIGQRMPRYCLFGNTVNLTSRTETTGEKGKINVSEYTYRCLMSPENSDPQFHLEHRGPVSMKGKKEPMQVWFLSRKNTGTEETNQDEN
Experiment: Effect on a recombinant guanylate cyclase reporter cell line
Format: cell-based
Conditions: MEC = minimum effective concentration; in some cases mean values for individual determinations
Protocol: B-2. Effect on a Recombinant Guanylate Cyclase Reporter Cell Line
The cellular effect of the inventive compounds is determined using a recombinant guanylate cyclase reporter cell line, as described in F. Wunder et al., Anal. Biochem. 339, 104-112 (2005).
Representative MEC values (MEC=minimum effective concentration) for the inventive compounds are shown in the table below (in some cases as mean values for individual determinations): […]

Row | Compound | MEC
1 | COC(=O)C(C)n1cc(-c2c(C)nc3c(OCc4c(F)cccc4F)cc(C)cn23)cn1 (centres unmarked) [Example 104] | 0.3 µM
2 | Cc1cc(OCc2c(F)cccc2F)c2nc(C)c(-c3cnn(CCC(=O)O)c3)n2c1 [Example 107, 3-(4-{8-[(2,6-Difluorobenzyl)oxy]-2,6-dimethylimidazo[1,2-a]pyridin-3-yl}-1H-pyrazol-1-yl)propanoic acid] | 0.065 µM
3 | Cc1cc(OCc2c(F)cccc2F)c2nc(C)c(-c3cnn(CC(=O)O)c3)n2c1 [Example 108, (4-{8-[(2,6-difluorobenzyl)oxy]-2,6-dimethylimidazo[1,2-a]pyridin-3-yl}-1H-pyrazol-1-yl)acetic acid] | 0.3 µM
4 | Cc1cc(OCc2c(F)cccc2F)c2nc(C)c(-c3cnn(C(C)C(=O)O)c3)n2c1 (centres unmarked) [Example 109] | 0.3 µM
5 | Cc1cc(OCc2c(F)cccc2F)c2nc(C)c(-c3cnn(CCC(=O)NC4CC4)c3)n2c1 [Example 114, N-Cyclopropyl-3-(4-{8-[(2,6-difluorobenzyl)oxy]-2,6-dimethylimidazo[1,2-a]pyridin-3-yl}-1H-pyrazol-1-yl)propanamide] | 0.3 µM
6 | Cc1cc(OCc2c(F)cccc2F)c2nc(C)c(-c3cnn(CC(N)=O)c3)n2c1 [Example 115, 2-(4-{8-[(2,6-Difluorobenzyl)oxy]-2,6-dimethylimidazo[1,2-a]pyridin-3-yl}-1H-pyrazol-1-yl)acetamide] | 0.1 µM
7 | Cc1cc(OCc2c(F)cccc2F)c2nc(C)c(-c3cnn(CC(C)(C)O)c3)n2c1 [Example 116, 1-(4-{8-[(2,6-Difluorobenzyl)oxy]-2,6-dimethylimidazo[1,2-a]pyridin-3-yl}-1H-pyrazol-1-yl)-2-methylpropan-2-ol] | 0.01 µM
8 | Cc1cc(OCc2c(F)cccc2F)c2nc(C)c(-c3cnn(CC(C)(C)N)c3)n2c1.Cl [Example 117, 1-(4-{8-[(2,6-Difluorobenzyl)oxy]-2,6-dimethylimidazo[1,2-a]pyridin-3-yl}-1H-pyrazol-1-yl)-2-methylpropan-2-amine hydrochloride] | 0.1 µM
9 | Cc1cc(OCc2c(F)cccc2F)c2nc(C)c(-c3cnn(CCN4CCOCC4)c3)n2c1 [Example 118, 8-[(2,6-Difluorobenzyl)oxy]-2,6-dimethyl-3-{1-[2-(morpholin-4-yl)ethyl]-1H-pyrazol-4-yl}imidazo[1,2-a]pyridine] | 0.03 µM
10 | Cc1nc2c(OCc3c(F)cccc3F)cccn2c1-c1cnn(CCN2CCOCC2)c1 [Example 119] | 0.1 µM
11 | Cc1nc2c(OCc3c(F)cccc3F)cccn2c1-c1cnn(-c2cccnc2)c1 [Example 121] | 1.0 µM
12 | Cc1nc2c(OCc3c(F)cccc3F)cccn2c1-c1cnn(-c2cncc(F)c2)c1 [Example 122] | 3.0 µM
13 | Cc1nc2c(OCc3c(F)cccc3F)cccn2c1-c1nc(N)n[nH]1 [Example 124, 5-{8-[(2,6-Difluorobenzyl)oxy]-2-methylimidazo[1,2-a]pyridin-3-yl}-1H-1,2,4-triazol-3-amine] | 3.0 µM
14 | Cc1nc2c(OCc3c(F)cccc3F)cccn2c1-c1nc(N)n(CC(F)(F)F)n1 [Example 125, 3-{8-[(2,6-Difluorobenzyl)oxy]-2-methylimidazo[1,2-a]pyridin-3-yl}-1-(2,2,2-trifluoroethyl)-1H-1,2,4-triazol-5-amine] | 3.0 µM
15 | Cc1cc(OCc2c(F)cccc2F)c2nc(C)c(-c3n[nH]c(C(F)(F)F)n3)n2c1 [Example 126, 8-[(2,6-Difluorobenzyl)oxy]-2,6-dimethyl-3-[5-(trifluoromethyl)-1H-1,2,4-triazol-3-yl]imidazo[1,2-a]pyridine] | 3.0 µM
16 | Cc1cc(OCc2c(F)cccc2F)c2nc(C)c(-c3nc[nH]n3)n2c1 [Example 128, 8-[(2,6-Difluorobenzyl)oxy]-2,6-dimethyl-3-(1H-1,2,4-triazol-3-yl)imidazo[1,2-a]pyridine] | 1.0 µM
17 | Cc1cc(OCc2c(F)cccc2F)c2nc(C)c(-c3ncn(CC(C)(C)N)n3)n2c1 [Example 129, 1-(3-{8-[(2,6-Difluorobenzyl)oxy]-2,6-dimethylimidazo[1,2-a]pyridin-3-yl}-1H-1,2,4-triazol-1-yl)-2-methylpropan-2-amine] | 1.0 µM
18 | Cc1cc(OCc2c(F)cccc2F)c2nc(C)c(-c3nnc(CC(C)(C)N)o3)n2c1 [Example 130, 1-(5-{8-[(2,6-Difluorobenzyl)oxy]-2,6-dimethylimidazo[1,2-a]pyridin-3-yl}-1,3,4-oxadiazol-2-yl)-2-methylpropan-2-amine] | 3.0 µM
19 | Cc1cc(OCc2c(F)cccc2F)c2nc(C)c(-c3nc(CC(C)(C)N)no3)n2c1.O=CO [Example 132, 1-(5-{8-[(2,6-Difluorobenzyl)oxy]-2,6-dimethylimidazo[1,2-a]pyridin-3-yl}-1,2,4-oxadiazol-3-yl)-2-methylpropan-2-amine formate] | 0.3 µM
20 | Cc1cc(OCc2c(F)cccc2F)c2nc(C)c(-c3nnc(CC(C)(C)N)s3)n2c1.O=CO [Example 133, 1-(5-{8-[(2,6-Difluorobenzyl)oxy]-2,6-dimethylimidazo[1,2-a]pyridin-3-yl}-1,3,4-thiadiazol-2-yl)-2-methylpropan-2-amine formate] | 0.3 µM
21 | Cc1nc2c(OCc3c(F)cccc3F)cccn2c1-c1cn[nH]n1 [Example 134, 8-[(2,6-Difluorobenzyl)oxy]-2-methyl-3-(2H-1,2,3-triazol-4-yl)imidazo[1,2-a]pyridine] | 1.0 µM
22 | Cc1ccc(-c2c(C)nc3c(OCc4c(F)cccc4F)cc(C)cn23)cc1 [Example 135, 8-[(2,6-Difluorobenzyl)oxy]-2,6-dimethyl-3-(4-methylphenyl)imidazo[1,2-a]pyridine] | 3.0 µM

Second part, the molecule after the results:

Row | MEC | Compound
23 | 0.03 µM | COC(=O)Cn1cc(-c2c(C)nc3c(OCc4c(F)cccc4F)cc(C)cn23)cn1 [Example 103, methyl (4-{8-[(2,6-difluorobenzyl)oxy]-2,6-dimethylimidazo[1,2-a]pyridin-3-yl}-1H-pyrazol-1-yl)acetate]
24 | 0.01 µM | COC(=O)CC(C)n1cc(-c2c(C)nc3c(OCc4c(F)cccc4F)cc(C)cn23)cn1 (centres unmarked) [Example 105]
25 | 0.3 µM | COC(=O)C1CC1n1cc(-c2c(C)nc3c(OCc4c(F)cccc4F)cc(C)cn23)cn1 (centres unmarked) [Example 106]
26 | 1.0 µM | Cc1cc(OCc2c(F)cccc2F)c2nc(C)c(-c3cnn(C4CC4C(=O)O)c3)n2c1 (centres unmarked) [Example 111]
27 | 0.03 µM | Cc1cc(OCc2c(F)cccc2F)c2nc(C)c(-c3cnn(CC(=O)NC4CC4)c3)n2c1 [Example 113, N-Cyclopropyl-2-(4-{8-[(2,6-difluorobenzyl)oxy]-2,6-dimethylimidazo[1,2-a]pyridin-3-yl}-1H-pyrazol-1-yl)acetamide]
28 | 0.3 µM | Cc1cc(OCc2c(F)cccc2F)c2nc(C)c(-c3cccc(CN4CCN(C)CC4)c3)n2c1 [Example 120]
29 | 0.3 µM | Cc1nc2c(OCc3c(F)cccc3F)cccn2c1-c1cnn(-c2ccc(F)cc2)c1 [Example 123, 8-[(2,6-Difluorobenzyl)oxy]-3-[1-(4-fluorophenyl)-1H-pyrazol-4-yl]-2-methylimidazo[1,2-a]pyridine]
30 | 0.3 µM | Cc1cc(OCc2c(F)cccc2F)c2nc(C)c(-c3cn(CC(C)(C)N)nc3C)n2c1.O=CO [Example 127, 1-(4-{8-[(2,6-Difluorobenzyl)oxy]-2,6-dimethylimidazo[1,2-a]pyridin-3-yl}-3-methyl-1H-pyrazol-1-yl)-2-methylpropan-2-amine formate]
31 | 1.0 µM | Cc1cc(OCc2c(F)cccc2F)c2nc(C)c(-c3noc(CC(C)(C)N)n3)n2c1 [Example 131, 1-(3-{8-[(2,6-Difluorobenzyl)oxy]-2,6-dimethylimidazo[1,2-a]pyridin-3-yl}-1,2,4-oxadiazol-5-yl)-2-methylpropan-2-amine]
32 | 3.0 µM | Cc1cc(OCc2c(F)cccc2F)c2nc(C)c(-c3ncc(C)o3)n2c1 [Example 137, 8-[(2,6-Difluorobenzyl)oxy]-2,6-dimethyl-3-(5-methyl-1,3-oxazol-2-yl)imidazo[1,2-a]pyridine]
